Assay results as given in patent US11186607B1, “Pleuromutilin ursodeoxycholic acid ester with antibacterial activity and a method of preparing the same” (Xi'an Taikomed Pharmaceutical Technology Co., Ltd., priority 2020, dated 2021).

Key:
Assay type in all cases: cell-based, Staphylococcus aureus
MRSA-171 = test: paper diffusion drug sensitivity test, MRSA-171; conditions: for Zone of inhibition: MRSA-171, drug sensitive paper 30 μg/tablet, LB plate, 37° C., 24 h; for inhibitory effect (in words): multi-drug resistant Staphylococcus aureus 171, summary of FIGS. 1-3 and Table 1
Method: [Worded in the source for another organism; this organism is reported under the same test.] (§1) The antimicrobial efficacy was determined by a paper diffusion drug sensitivity test.
(§2) Experimental strains: multi-resistant Staphylococcus aureus 206, multi-resistant Staphylococcus aureus 575, multi-resistant Staphylococcus aureus 596. The experimental strains were provided by Huashan Hospital Affiliated to Fudan University (Institute of Antibiotic of Fudan University).
(§3) Drug sensitive paper: The drug sensitive paper was a special drug sensitive paper with a diameter of 6.35 mm and a water absorption of 0.02 mL. The control drug was vancomycin (30 μg/tablet); the test drugs were pleuromulin (30 μg/tablet), ursodeoxycholic acid (30 μg/tablet) and pleuromulin ursodeoxycholic acid ester (30 μg/tablet).
(§4) The experimental strains were inoculated in non-selective medium and placed in air at 37° C. for 24 h. Pick a single colony that grows well and inoculate it into broth medium, incubate at 35° C.±2° C. for 6 hours, and use LA broth medium to calibrate the concentration of the bacterial solution to 0.5 Mie turbidimetric tube (1.5×10^8 CFU/mL). A bacterial suspension is obtained.
(§5) Weigh the LB dry powder, sterilize at 103.4 Kpa, 121.3° C. high-pressure steam for 15 min, and then put it in a 40° C.-50° C. water bath. Place a sterile empty plate (inner diameter 9 cm) on the surface of the ultra-clean table water table, shake and shake LB, and then pour the plate. The thickness of each plate is 3 mm to 4 mm. After the plate is cooled at room temperature, store it in the refrigerator at 2° C.-8° C. Use a sterile cotton swab to dip the bacterial solution, and evenly coat the surface of the LB plate 3 times. After inoculation of the bacterial suspension, the LB plate was dried at room temperature for 3 min to 5 min. Use sterile forceps to closely attach the antibacterial drug paper to the dish. Put the dish upside down and place it in a 37° C. incubator for 24 h. Observe the result and measure the diameter. Taking 0.5% DMSO solution as a negative control, the antibacterial activity is expressed by the diameter of the inhibition zone. The inhibition zone ≥17 mm, sensitive; the inhibition zone is 15 mm˜16 mm, intermediary; the inhibition zone ≤14 mm, drug resistance.

MRSA-575 = test: paper diffusion drug sensitivity test, MRSA-575; conditions: for Zone of inhibition: MRSA-575, drug sensitive paper 30 μg/tablet, LB plate, 37° C., 24 h; for inhibitory effect (in words): multi-drug resistant Staphylococcus aureus 575, summary of FIGS. 1-3 and Table 1
Method: as §1, §2, §3, §4, §5

MRSA-596 = test: paper diffusion drug sensitivity test, MRSA-596; conditions: for Zone of inhibition: MRSA-596, drug sensitive paper 30 μg/tablet, LB plate, 37° C., 24 h; for inhibitory effect (in words): multi-drug resistant Staphylococcus aureus 596, summary of FIGS. 1-3 and Table 1
Method: as §1, §2, §3, §4, §5

C=C[C@]1(C)C[C@@H](OC(=O)COC(=O)CC[C@@H](C)[C@H]2CCC3[C@@H]4[C@@H](O)C[C@@H]5C[C@H](O)CC[C@]5(C)[C@H]4CC[C@@]32C)[C@]2(C)CC[C@@H](C)[C@@]3(CCC(=O)[C@@H]23)[C@@H](C)[C@@H]1O (stereo partly drawn) [Pleuromulin ursodeoxycholic acid ester, (4R)-2-(((3aS,4R,5S,6S,8R,9R,9aR,12R)-5-hydroxy-4,6,9,12-tetramethyl-1-oxo-6-vinyldecahydro-3a,9-propanocyclopenta[8]annulen-8-yl)oxy)-2-oxoethyl 4-((3R,5 S,7 S, 8R,9 S, 10 S,13R,17R)-3,7-dihydroxy-10,13-dimethylhexadecahydro-1H-cyclopenta[a]phenanthren-17-yl)pentanoate] was tested, and the Zone of inhibition (MRSA-171) was 11 mm, the “inhibitory effect (in words)” value (MRSA-171) was “strong inhibitory effects” and the Zone of inhibition (MRSA-575) was 13 mm. For the same compound, the Zone of inhibition (MRSA-575; listed as pleuromutilin ursodeoxycholic acid ester) was “up to 13 mm”, the “inhibitory effect (in words)” value (MRSA-575) was “strong inhibitory effects” and the Zone of inhibition (MRSA-596) was 12 mm. The “inhibitory effect (in words)” value (MRSA-596) was “strong inhibitory effects”.

With C=C[C@]1(C)C[C@@H](OC(=O)CO)[C@]2(C)[C@H](C)CC[C@]3(CCC(=O)[C@H]32)[C@@H](C)[C@@H]1O [Pleuromulin] the Zone of inhibition (MRSA-171) was 0 mm, the “inhibitory effect (in words)” value (MRSA-171) was “no inhibitory effect” and the Zone of inhibition (MRSA-575) was 0 mm. For the same compound, the “inhibitory effect (in words)” value (MRSA-575) was “no inhibitory effect”, the Zone of inhibition (MRSA-596) was 0 mm and the “inhibitory effect (in words)” value (MRSA-596) was “no inhibitory effect”.

With C[C@H](CCC(=O)O)[C@H]1CC[C@H]2[C@@H]3[C@@H](O)C[C@@H]4C[C@H](O)CC[C@]4(C)[C@H]3CC[C@]12C [Ursodeoxycholic acid] the Zone of inhibition (MRSA-171) was 0 mm, the “inhibitory effect (in words)” value (MRSA-171) was “no inhibitory effect” and the Zone of inhibition (MRSA-575) was 0 mm. For the same compound, the “inhibitory effect (in words)” value (MRSA-575) was “no inhibitory effect”, the Zone of inhibition (MRSA-596) was 0 mm and the “inhibitory effect (in words)” value (MRSA-596) was “no inhibitory effect”.

In the case of CN[C@H](CC(C)C)C(=O)N[C@H]1C(=O)N[C@@H](CC(N)=O)C(=O)N[C@H]2C(=O)N[C@H]3C(=O)N[C@H](C(=O)N[C@H](C(=O)O)c4cc(O)cc(O)c4-c4cc3ccc4O)[C@H](O)c3ccc(c(Cl)c3)Oc3cc2cc(c3O[C@@H]2O[C@H](CO)[C@@H](O)[C@H](O)[C@H]2O[C@H]2C[C@](C)(N)[C@H](O)[C@H](C)O2)Oc2ccc(cc2Cl)[C@H]1O [Vancomycin], the Zone of inhibition (MRSA-171) is reported as 17 mm, the Zone of inhibition (MRSA-575) is reported as 17 mm and the Zone of inhibition (MRSA-596) is reported as 23 mm.
